Consider 1 molecule from patent US20120302569A1, “PHENYL-THIAZOLYL INHIBITORS OF PRO-MATRIX METALLOPROTEINASE ACTIVATION” (priority 2011, published 2012).

Test [1] relates to rats with SCW-induced arthritis. Description: Efficacy in rats with SCW arthritis (ankle thickness, clinical scores). The format is in vivo, rat. From the text:
A polyarthritis can be induced in female Lewis rats following i.p. administration of streptococcal cell wall (SCW) proteoglycan-polysaccharides (PG-PS) (J Exp Med 1977; 146:1585-1602). The model has an acute phase (days 3-7) that is complement and neutrophil-dependent and that resolves. A chronic erosive phase begins at about day ten and is dependent on the development of specific T cell immunity to the PG-GS, which resists digestion and remains present in synovial macrophages for months. Like rheumatoid arthritis, SCW-induced arthritis is reduced by TNF inhibitors, and the dependence of SCW-induced arthritis on macrophages (Rheumatology; 2001; 40:978-987) and the strong association of rheumatoid arthritis severity with synovial-tissue macrophage counts (Ann Rheum Dis; 2005; 64:834-838) makes SCW-arthritis an attractive model for testing potential therapeutic agents. SCW PG-PS 10S (Beckton Dickinson Cat#210866) suspended in saline was vortexed for 30 seconds and sonicated for 3 min with a probe type sonicator prior to injection. Female Lewis (LEW/N) rats, 5-6 weeks of age (80-100 g) were injected (i.p.) with SCW PG-PS (15 μg of rhamnose/gram BW) in the lower left quadrant of the abdomen using a 1 mL syringe fitted with a 23-gauge needle. Control (disease-free) rats were treated in a similar manner with sterile saline. Control rats were sacrificed on day 5 and groups of SCW-injected rats were sacrificed on day 5 when acute inflammation was maximal or on day 18 when chronic inflammation was established.
To induce arthritis, Female Lewis (LEW/N) rats, 5-6 weeks of age (80-100 g) were injected (i.p.) with SCW PG-PS as described above. Eighteen days later, arthritis was well established. Calipers were used to measure the width (anterior to posterior surface) of the left and right hind ankles of each rat. Each ankle was measured 3 times and averaged, and treatment groups were randomized based on ankle thickness (Table 6). Commencing on day 18, randomized groups of arthritic rats (n=5 rats/group) received vehicle or 5, 20, or 50 mg/kg Compound α BID by oral gavage. Vehicle consisted of an aqueous mixture containing 2% (v:v) N-methylpyrrolidone, 5% (v:v) glycerine, and 20% (w:v) captisol. Treatment continued daily through the morning of day 26.
Hind paw inflammation clinical scores were assigned based on swelling and erythema.

Test [2] deals with T1, MMP9 (Rattus norvegicus, UniProt P50282).
T1 construct: Pro and active MMP9 were abundantly present in ankles of SCW-induced vehicle-treated rats; from tissue; host or cells: tibia-tarsus joints (ankles) of female Lewis rats
The test can be described thus: Active MMP9 in ankles of rats with SCW-induced arthritis by Western blot. The conditions noted are these: day 26, four hours after AM dose; FIG. 3A lanes 4-9. The format is in vivo. On the procedure:
Hind-limbs were skinned, severed just above the tibia-tarsus joint and below the metatarsals, and the tibia-tarsus joints (ankles) were weighed, snap frozen and pulverized on dry ice using a hammer and anvil. The pulverized tissue was suspended in 3 volumes (w:v) of ice-cold homogenization buffer containing 50 mM Tris pH 7.5, 150 mM NaCl, 5 mM EDTA, 1% Triton X100, 0.05% Brij 30, 10% dimethylsulfoxide and Complete EDTA-free Protease Inhibitor Cocktail (Roche Diagnostics). The suspended tissue was homogenized sequentially with a Kinematica AG Polytron and a Dounce homogenizer. Homogenates were centrifuged at 16,000×g for 10 min at 4° C. and the soluble fractions were saved. Dimethylsulfoxide was removed from a portion of each soluble fraction using PD MiniTrap™ G-25 desalting columns (GE Healthcare). Homogenates (0.25 mL), free of DMSO, were diluted with an equal volume of binding buffer (i.e., homogenization buffer without dimethylsufoxide) and adjusted to contain 50 μL of a 50% slurry of gelatin-conjugated sepharose. Following 2 hours of rotation at 4° C. the beads were washed twice in binding buffer and eluted in 100 μL 2×-reducing Laemmli buffer with heating to 95° C. for 5 minutes. […]
Background: A western blot detects proteins with antibodies after separation by electrophoresis.

T1 sequence (P50282 108-708): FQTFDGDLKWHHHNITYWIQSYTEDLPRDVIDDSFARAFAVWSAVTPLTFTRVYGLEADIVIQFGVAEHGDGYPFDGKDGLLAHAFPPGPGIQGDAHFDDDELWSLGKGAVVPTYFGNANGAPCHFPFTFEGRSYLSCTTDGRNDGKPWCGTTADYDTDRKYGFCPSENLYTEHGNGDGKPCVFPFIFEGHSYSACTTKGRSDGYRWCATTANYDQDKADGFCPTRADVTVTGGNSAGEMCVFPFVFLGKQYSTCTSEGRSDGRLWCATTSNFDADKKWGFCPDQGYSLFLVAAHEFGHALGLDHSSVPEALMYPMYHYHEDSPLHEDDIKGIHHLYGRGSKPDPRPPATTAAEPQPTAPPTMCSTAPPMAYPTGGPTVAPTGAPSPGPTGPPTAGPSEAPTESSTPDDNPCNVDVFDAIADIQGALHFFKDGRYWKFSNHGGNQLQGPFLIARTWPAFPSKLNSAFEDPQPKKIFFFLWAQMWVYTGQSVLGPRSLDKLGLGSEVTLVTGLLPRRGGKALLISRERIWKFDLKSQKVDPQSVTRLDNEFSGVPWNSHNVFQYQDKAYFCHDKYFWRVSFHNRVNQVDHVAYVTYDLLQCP

With `Cc1nc(C)c(-c2csc(Nc3cc(S(N)(=O)=O)ccc3OC(C)C)n2)s1` [Compound α, 3-(2′,4′-Dimethyl-[4,5′]bithiazolyl-2-ylamino)-4-isopropoxy-benzenesulfonamide.HBr], the ankle thickness measurements entry in test [1] (5, 20, 50 mg/kg BID oral, Day 18-26) is recorded as “dose-dependent decrease”. Besides, the clinical score measurements result in test [1] (5, 20, 50 mg/kg BID oral, significant effects emerging at 20 mg/kg) is given as “dose dependent decrease”. Besides, in test [1] (Rattus norvegicus, 5 mg/kg BID oral, Day 18-26, read-out: Day 26 % Inh of disease associated increase in ankle thickness), the inhibition at 5 mg/kg was 27%. Also, the inhibition at 20 mg/kg in test [1] (Rattus norvegicus, 20 mg/kg BID oral, Day 18-26, read-out: Day 26 % Inh of disease associated increase in ankle thickness) was found to be 37%. In addition, in test [1] (Rattus norvegicus, 50 mg/kg BID oral, Day 18-26, read-out: Day 26 % Inh of disease associated increase in ankle thickness), the inhibition at 50 mg/kg amounted to 46%. In test [2], the “abundance of proMMP9 in ankles” value was “did not reduce”.
